Columns and labels:
MCF10A p53(−/−) cells = assay: Growth of isogenic MCF10A cells, p53(−/−); type: cell-based
BT474 cells [1] = assay: Immunoblot analysis in BT474 cells; type: cell-based
Method: (§1) After wash with cold DPBS buffer, cells were lysed in RIPA buffer that contained 50 mM Tris-HCl pH 8.0, 150 mM NaCl, 1 mM EDTA, 1 mM EGTA, 1% NP-40, 0.5% sodium deoxycholate, 0.1% SDS, and protease and phosphatase inhibitor cocktails (Roche). Total protein concentrations were measured using a BCA assay (Thermo scientific). Cell lysate (about 80 μg protein) was resolved by SDS-PAGE and blotted onto PVDF membranes. The membranes were probed overnight at 4° C. with appropriate primary antibodies (Cell Signaling Technology) and incubated with secondary fluorescent antibodies (LI-COR Biosciences) for 1 hr at room temperature before imaging by an Odyssey CLx system.

PLK2 = PLK2 (Homo sapiens, UniProt Q9NYY3); assay: HotSpot protein kinase panel; conditions: read-out: PLK2 activity remaining
Method: (§3) In both titrations, the ATP concentration was fixed at 50 μM. The assay kits for Plk1 and RSK2 were obtained from Promega (Madison, Wis.), which use ADP-Glo™ for activity detection.

C2Cl2 myotubes = assay: Adenine nucleotides measurement in myotubes (luminescent ATP kit, HPLC, LC-MS/MS); type: cell-based, mouse
Method: C2Cl2 cells were plated and differentiated on the same type of plates. After treatment with compound overnight, total cellular ATP levels were measured by a luminescent ATP detection assay kit (Abcam) following manufacturer's protocol and normalized against the total protein concentration.
To measure nucleotide concentration using HPLC or LC-MS/MS, cells were rinsed three times with DPBS buffer at room temperature and lysed in ice-cold 0.4M perchloric acid (500 μl acid per 10^6 cells). The culture dishes were sealed and transferred to a −80° C. freezer. Cell lysates were then thawed on ice, scraped off, and centrifuged at 14,000 rpm at 4° C. for 10 min. The pellet was solubilized in 0.2M NaOH and set aside for measurement of protein concentration. The supernatant was transferred to clean tubes and neutralized with 3M KHCO3. The neutralized sample was kept on ice for 10 min and then transferred to a −80° C. freezer. After 2 hrs, thawed sample was centrifuged again to remove the precipitated perchlorate, filtered, adjusted according to protein concentration, aliquoted and stored at −80° C. The sample was thawed on ice just before the HPLC or LC-MS/MS experiment. […] The nucleotides were separated using 20 mM ammonium acetate in water (solvent A) and 5% acetonitrile in water buffered with 20 mM ammonium acetate (solvent B), which were both adjusted with ammonium hydroxide to pH 9.0. The flow rate was 0.7 mL/min, and the column temperature was maintained at 35° C. The gradient elution program was: 0-2 min, 0-5% B; 2-12 min, 5-10% B; 12-22 min, 10-20% B; 22-25 min, 20-100% B; 25-30 min, 100% B, and then back to 100% A for 1 min, which was maintained for another 9 min to recondition the column. Mass spectrometric ESI ionization was performed in the negative ion mode and the source parameters were set as follows: gas temperature, 200° C.; gas flow, 12 L/min; nebulizer pressure, 35 psi; sheath gas temperature, 200° C.; sheath gas flow, 12 L/min; capillary voltage, −4,000V; fragmentor voltage, 380V.

L6 myotubes = assay: 2-deoxyglucose uptake; type: cell-based, rat; conditions: overnight treatment with 20 μM 7a or 1 mM metformin
Method: To measure 2-deoxyglucose (2-DG) uptake, L6 myotubes were treated with compound or DMSO control overnight in the absence of serum in α-MEM. Following treatment, cells were washed twice with KRH buffer (50 mM HEPES pH 7.4, 137 mM NaCl, 4.7 mM KCl, 1.85 mM CaCl2, 1.3 mM MgSO4) containing 0.1% BSA. Residual wash buffer was removed by aspiration. Cells were then incubated for 10 min at 37° C. in a KRH buffer containing 0.1% BSA, 5 mM unlabeled 2-DG and 2 μCi/ml [1,2-^3H(N)]-2-deoxy-D-glucose (PerkinElmer). The uptake was terminated by washing four times with ice-cold KRH buffer containing 0.1% BSA. Nonspecific 2-DG uptake into cells was determined in the presence of 10 μM cytochalasin B, which inhibits glucose transporters, and subtracted. The cells were lysed with 0.05 M NaOH for 2 hrs at 37° C. 10 μl cell lysate was used to quantify protein concentration by BCA assay. The remaining sample was transferred to a scintillation vial containing 3 ml Opti-Fluor liquid scintillation cocktail (PerkinElmer), and radioactivity was determined using a Beckman Coulter LS 6500 scintillation system and normalized against protein concentration.

PI4P5Kα = PI4P5Kα (Homo sapiens, UniProt Q99755); assay: Lipid kinase assay / panel (ADP-Glo)
Description: The assay kits for Plk1 and RSK2 were obtained from Promega (Madison, Wis.), which use ADP-Glo™ for activity detection.

p110α/p85α = p110α/p85α (Homo sapiens, UniProt P42336); assay: In vitro lipid kinase profiling
BT474 cells [2] = assay: Glucose consumption and lactate secretion in BT474 cells; type: cell-based
Method: (§2) To measure glucose consumption and lactate production, a total of 1×10^5 cells were seeded into each well of a 12-well plate and cultured in the presence of compound for 48 hrs. The culture media were collected and deproteinized by centrifugation using an Amicon Ultra centrifugal filter (3 kDa cut-off), while cells were lysed and used for protein concentration determination by BCA assay. The media were assayed immediately for glucose and lactate levels using colorimetric assay kits from BioVision following the manufacturer's protocols. The values were normalized against protein concentration. All measurements were made in triplicate.

Plk1 = Plk1 (Homo sapiens, UniProt P53350); assay: Plk1 kinase assay kit (Promega, ADP-Glo); conditions: ATP 50 μM
Method: as §3

myotubes = assay: Glucose consumption and lactate production in myotube culture media; type: cell-based
Method: as §2

MCF7 cells = assay: Immunoblot analysis of AMPK activation in MCF7 cells; type: cell-based
Method: as §1

mTOR/FRAP1 = mTOR/FRAP1 (Homo sapiens, UniProt P42345); assay: In vitro kinase profiling; type: biochemical
PIKfyve = PIKfyve (Homo sapiens, UniProt Q9Y2I7); assay: Lipid kinase assay
Sequence of PIKfyve (Q9Y2I7 whole entry, species assumed): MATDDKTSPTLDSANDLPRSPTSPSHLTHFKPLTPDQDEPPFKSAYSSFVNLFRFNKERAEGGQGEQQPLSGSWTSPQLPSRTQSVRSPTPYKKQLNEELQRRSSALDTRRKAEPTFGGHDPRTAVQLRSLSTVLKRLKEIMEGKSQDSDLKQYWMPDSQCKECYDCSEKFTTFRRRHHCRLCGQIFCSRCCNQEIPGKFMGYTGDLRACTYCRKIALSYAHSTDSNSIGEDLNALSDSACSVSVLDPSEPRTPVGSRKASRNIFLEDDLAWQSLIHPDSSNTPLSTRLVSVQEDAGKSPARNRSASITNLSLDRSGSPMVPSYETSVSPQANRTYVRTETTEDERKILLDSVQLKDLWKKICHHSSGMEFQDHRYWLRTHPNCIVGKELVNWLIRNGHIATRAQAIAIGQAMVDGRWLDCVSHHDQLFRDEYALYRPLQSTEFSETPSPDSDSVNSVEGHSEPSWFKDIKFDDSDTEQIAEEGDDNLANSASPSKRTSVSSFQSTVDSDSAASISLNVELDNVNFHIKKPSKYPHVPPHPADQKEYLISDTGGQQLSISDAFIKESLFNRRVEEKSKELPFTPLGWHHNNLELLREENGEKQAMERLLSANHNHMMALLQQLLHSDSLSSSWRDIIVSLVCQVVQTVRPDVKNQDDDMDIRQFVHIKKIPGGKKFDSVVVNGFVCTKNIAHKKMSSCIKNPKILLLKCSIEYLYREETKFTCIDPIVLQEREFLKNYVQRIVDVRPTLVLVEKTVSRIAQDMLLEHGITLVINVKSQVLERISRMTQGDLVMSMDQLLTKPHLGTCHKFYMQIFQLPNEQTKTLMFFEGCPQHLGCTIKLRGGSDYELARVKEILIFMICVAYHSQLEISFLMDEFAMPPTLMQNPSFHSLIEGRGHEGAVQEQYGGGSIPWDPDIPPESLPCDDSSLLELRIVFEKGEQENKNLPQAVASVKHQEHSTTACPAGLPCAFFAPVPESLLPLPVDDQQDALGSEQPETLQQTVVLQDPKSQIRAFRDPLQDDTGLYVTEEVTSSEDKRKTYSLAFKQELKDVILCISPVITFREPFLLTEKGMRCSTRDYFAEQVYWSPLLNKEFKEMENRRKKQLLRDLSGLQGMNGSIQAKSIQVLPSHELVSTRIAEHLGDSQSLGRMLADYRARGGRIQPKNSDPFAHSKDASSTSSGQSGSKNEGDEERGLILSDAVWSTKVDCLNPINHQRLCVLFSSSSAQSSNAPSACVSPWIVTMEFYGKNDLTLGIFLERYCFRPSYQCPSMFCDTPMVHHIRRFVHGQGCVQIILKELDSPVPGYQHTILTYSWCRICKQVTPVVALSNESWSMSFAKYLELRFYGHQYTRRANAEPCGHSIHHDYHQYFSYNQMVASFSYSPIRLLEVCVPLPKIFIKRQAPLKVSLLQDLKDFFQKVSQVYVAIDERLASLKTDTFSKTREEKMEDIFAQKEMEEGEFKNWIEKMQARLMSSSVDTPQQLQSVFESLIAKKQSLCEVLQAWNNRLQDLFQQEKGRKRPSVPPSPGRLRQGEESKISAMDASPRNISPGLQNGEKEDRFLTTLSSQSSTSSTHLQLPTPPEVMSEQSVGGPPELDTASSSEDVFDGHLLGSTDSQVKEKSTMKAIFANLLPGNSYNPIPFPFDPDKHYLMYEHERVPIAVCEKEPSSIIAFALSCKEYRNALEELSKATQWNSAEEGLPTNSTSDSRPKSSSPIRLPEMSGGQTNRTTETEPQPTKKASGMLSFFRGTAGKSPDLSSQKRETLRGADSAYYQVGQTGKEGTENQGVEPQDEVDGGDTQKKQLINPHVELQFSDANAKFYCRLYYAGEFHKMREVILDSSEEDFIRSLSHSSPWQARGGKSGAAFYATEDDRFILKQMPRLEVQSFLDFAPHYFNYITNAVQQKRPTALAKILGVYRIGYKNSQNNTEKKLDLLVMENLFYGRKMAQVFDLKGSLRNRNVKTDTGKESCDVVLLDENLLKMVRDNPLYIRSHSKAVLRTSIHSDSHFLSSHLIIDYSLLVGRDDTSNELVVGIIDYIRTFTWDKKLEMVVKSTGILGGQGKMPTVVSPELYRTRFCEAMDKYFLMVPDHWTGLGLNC

Sequence of PI4P5Kα (Q99755 whole entry): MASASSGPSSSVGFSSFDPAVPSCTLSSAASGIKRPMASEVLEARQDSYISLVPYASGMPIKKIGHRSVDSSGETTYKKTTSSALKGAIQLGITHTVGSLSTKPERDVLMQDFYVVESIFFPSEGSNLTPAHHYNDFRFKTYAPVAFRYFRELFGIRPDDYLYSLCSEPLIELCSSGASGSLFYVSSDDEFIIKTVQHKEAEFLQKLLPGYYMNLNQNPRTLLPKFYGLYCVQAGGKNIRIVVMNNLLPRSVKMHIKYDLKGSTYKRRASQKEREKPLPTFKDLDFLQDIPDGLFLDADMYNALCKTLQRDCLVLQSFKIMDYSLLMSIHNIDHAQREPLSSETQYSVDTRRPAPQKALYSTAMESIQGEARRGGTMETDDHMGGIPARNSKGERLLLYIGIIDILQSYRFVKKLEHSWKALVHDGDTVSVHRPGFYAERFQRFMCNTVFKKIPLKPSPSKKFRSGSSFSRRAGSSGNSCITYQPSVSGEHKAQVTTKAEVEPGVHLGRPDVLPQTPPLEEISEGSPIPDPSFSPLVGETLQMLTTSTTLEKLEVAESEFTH
Sequence of PLK2 (Q9NYY3 whole entry): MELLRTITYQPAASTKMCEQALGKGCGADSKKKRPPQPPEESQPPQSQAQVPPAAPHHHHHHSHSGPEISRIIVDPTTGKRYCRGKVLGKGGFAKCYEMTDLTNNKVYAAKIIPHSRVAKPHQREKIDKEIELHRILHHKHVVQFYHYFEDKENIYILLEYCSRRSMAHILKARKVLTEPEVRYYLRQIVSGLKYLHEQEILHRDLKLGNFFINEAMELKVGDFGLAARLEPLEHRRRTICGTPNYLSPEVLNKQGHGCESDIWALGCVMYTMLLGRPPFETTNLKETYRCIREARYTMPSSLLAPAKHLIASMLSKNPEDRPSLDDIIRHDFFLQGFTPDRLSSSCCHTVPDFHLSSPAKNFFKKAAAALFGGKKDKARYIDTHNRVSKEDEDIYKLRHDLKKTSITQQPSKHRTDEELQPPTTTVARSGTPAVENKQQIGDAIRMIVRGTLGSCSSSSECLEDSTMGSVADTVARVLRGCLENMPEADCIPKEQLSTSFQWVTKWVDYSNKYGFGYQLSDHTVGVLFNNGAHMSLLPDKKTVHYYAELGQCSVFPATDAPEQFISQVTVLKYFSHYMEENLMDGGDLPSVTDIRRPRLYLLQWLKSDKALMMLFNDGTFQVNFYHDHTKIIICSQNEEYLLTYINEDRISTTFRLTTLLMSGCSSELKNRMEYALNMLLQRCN
Sequence of Plk1 (P53350 whole entry): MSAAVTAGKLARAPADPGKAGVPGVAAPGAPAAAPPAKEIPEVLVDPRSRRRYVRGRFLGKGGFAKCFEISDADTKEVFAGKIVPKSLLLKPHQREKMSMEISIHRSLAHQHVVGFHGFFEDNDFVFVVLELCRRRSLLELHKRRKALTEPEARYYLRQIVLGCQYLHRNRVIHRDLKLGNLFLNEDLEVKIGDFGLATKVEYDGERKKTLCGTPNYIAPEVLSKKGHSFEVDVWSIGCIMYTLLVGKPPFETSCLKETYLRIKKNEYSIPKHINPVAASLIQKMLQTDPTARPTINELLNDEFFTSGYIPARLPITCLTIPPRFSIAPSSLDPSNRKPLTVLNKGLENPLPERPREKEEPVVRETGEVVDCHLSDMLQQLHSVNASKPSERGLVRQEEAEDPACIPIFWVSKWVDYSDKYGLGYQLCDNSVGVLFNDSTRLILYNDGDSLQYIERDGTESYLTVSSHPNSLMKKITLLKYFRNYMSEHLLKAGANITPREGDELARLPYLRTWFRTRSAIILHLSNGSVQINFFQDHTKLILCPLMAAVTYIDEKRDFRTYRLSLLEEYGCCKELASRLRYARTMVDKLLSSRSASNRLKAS

CN1C(=O)[C@@H](CC2CCCC2)N(C2CCCC2)c2nc(Nc3cc(Cl)c(O)c(Cl)c3)ncc21 [7a, (R)-8-cyclopentyl-7-(cyclopentylmethyl)-2-((3,5-dichloro-4-hydroxyphenyl)amino)-5-methyl-7,8-dihydropteridin-6(5H)-one]
residual growth of p53(−/−) cells under EGFR inhibition (MCF10A p53(−/−) cells; 10 μM 7a): eliminated | sensitivity of growth of p53(−/−) vs p53(+/+) cells (MCF10A p53(−/−) cells; without EGF supplement): more sensitive | p38 phosphorylation (BT474 cells [1]; 20 μM): increased | levels of cell-cycle inhibitors p21 and p27 (BT474 cells [1]; BT474): increased levels | mTORC1 activity (S6K phosphorylation) (BT474 cells [1]; BT474): less S6K phosphorylation | AMPK activation (phosphorylation of ACC and raptor) (BT474 cells [1]; BT474, 0, 10 and 20 μM): activated | AMPK activation (BT474 cells [1]; BT474, absence of serum): caused AMPK activation | AMPK activation (BT474 cells [1]; BT474, with serum, 32° C.): no longer caused AMPK activation | AMPK activation (BT474 cells [1]; BT474, with serum, 37° C.): activated | remaining activity at 0.5 µM (PLK2): 75% | ADP concentration (C2Cl2 myotubes): unchanged | reduction of intracellular ATP level (C2Cl2 myotubes; bioluminescence assay or HPLC, compound overnight): 15% | increase in AMP concentration (C2Cl2 myotubes; triple quadrupole LC-MS/MS): 30% | rate of glucose uptake (labeled 2-deoxyglucose) (L6 myotubes): doubled | Ki (PI4P5Kα): ~5000 nM | remaining activity at 0.5 µM (PI4P5Kα; read-out: PI4P5Kα activity remaining): 95% | inhibition of p110α/p85α (p110α/p85α): not inhibited | lactate fermentation (BT474 cells [2]; absence of serum): slightly increased | metabolic switch induced by serum (glucose consumption, lactate secretion) (BT474 cells [2]; with serum): prevented | inhibition of Plk1 (Plk1): no longer inhibited | lactate accumulated in the media (myotubes; 48 hours after treatment): 7.7 mM | reduction of glucose concentration in the media (myotubes; 48 hours after treatment): 10.3 mM | increase in glucose consumption (myotubes; after 2 days of cell culture): 32% | increase in lactate secretion (myotubes; after 2 days of cell culture): 45% | AMPK activation (MCF7 cells; MCF7, absence of serum): caused AMPK activation | AMPK activation (MCF7 cells; MCF7, with serum): no longer caused AMPK activation | inhibition of mTOR/FRAP1 in vitro (mTOR/FRAP1): did not inhibit | Ki (PIKfyve): ~200 nM

— patent US11773096B2, “Small-molecule PI5P4K alpha/beta inhibitors and methods of treatment using same” (YALE UNIVERSITY, priority 2018, dated 2023)
